Source: patent US20230139171A1 (SITA Information Networking Computing UK Limited, priority 2019, published 2023)

Experiments:
Assay type in all cases: cell-based
[1] = molecular target: T1, human TLR7 (Homo sapiens, UniProt Q9NYK1); test: TLR7 inhibition reporter assay (HEK-Blue cells, SEAP reporter, gardiquimod stimulation); settings: HEK-Blue cells overexpressing human TLR7, SEAP reporter, gardiquimod 7.5 μM; read-out: TLR7 IC50
T1 construct: host or cells: HEK-Blue cells
T1 sequence (Q9NYK1 27-1049): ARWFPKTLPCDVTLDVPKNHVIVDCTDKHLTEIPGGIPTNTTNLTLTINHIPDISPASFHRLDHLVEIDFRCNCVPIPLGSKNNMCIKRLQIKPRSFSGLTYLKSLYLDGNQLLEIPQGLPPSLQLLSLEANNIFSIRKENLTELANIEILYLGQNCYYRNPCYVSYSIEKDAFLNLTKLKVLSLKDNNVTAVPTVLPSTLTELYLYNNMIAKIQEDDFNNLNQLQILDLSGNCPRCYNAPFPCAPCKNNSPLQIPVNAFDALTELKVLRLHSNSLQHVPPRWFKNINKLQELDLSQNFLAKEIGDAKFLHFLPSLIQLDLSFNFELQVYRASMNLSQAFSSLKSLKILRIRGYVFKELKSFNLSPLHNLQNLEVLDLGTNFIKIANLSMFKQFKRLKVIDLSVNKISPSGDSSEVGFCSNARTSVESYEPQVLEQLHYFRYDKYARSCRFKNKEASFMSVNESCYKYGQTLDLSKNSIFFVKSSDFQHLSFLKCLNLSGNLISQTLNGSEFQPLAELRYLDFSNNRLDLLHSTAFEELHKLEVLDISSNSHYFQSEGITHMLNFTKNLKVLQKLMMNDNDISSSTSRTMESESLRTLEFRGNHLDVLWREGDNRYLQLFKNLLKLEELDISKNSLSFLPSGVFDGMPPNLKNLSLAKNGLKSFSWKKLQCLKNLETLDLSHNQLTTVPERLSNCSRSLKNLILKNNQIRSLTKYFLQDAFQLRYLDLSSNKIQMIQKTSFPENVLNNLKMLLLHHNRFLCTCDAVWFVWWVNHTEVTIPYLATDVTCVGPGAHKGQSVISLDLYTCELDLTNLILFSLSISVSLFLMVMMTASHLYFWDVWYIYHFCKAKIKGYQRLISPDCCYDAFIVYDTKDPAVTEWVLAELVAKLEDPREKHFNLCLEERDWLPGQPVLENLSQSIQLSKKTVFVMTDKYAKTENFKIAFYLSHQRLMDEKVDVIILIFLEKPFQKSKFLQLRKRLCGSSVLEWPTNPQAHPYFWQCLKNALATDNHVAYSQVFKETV
Procedure, shortened: (§1)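 Screening used HEK-Blue cells overexpressing one human TLR (7, 8 or 9) and an IFN-β minimal promoter–NF-κB/AP-1 SEAP construct. Stimulation lasted 22 h at 37 °C with receptor-specific agonist: gardiquimod, R848 or ODN2006 at 7.5 μM, 15.9 μM and 5 nM.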

[2] = molecular target: T2, human TLR8 (Homo sapiens, UniProt Q9NR97); test: TLR8 inhibition reporter assay (HEK-Blue cells, SEAP reporter, R848 stimulation); settings: HEK-Blue cells overexpressing human TLR8, SEAP reporter, R848 15.9 μM; read-out: TLR8 IC50
T2 construct: host or cells: HEK-Blue cells
T2 sequence (Q9NR97 27-1041): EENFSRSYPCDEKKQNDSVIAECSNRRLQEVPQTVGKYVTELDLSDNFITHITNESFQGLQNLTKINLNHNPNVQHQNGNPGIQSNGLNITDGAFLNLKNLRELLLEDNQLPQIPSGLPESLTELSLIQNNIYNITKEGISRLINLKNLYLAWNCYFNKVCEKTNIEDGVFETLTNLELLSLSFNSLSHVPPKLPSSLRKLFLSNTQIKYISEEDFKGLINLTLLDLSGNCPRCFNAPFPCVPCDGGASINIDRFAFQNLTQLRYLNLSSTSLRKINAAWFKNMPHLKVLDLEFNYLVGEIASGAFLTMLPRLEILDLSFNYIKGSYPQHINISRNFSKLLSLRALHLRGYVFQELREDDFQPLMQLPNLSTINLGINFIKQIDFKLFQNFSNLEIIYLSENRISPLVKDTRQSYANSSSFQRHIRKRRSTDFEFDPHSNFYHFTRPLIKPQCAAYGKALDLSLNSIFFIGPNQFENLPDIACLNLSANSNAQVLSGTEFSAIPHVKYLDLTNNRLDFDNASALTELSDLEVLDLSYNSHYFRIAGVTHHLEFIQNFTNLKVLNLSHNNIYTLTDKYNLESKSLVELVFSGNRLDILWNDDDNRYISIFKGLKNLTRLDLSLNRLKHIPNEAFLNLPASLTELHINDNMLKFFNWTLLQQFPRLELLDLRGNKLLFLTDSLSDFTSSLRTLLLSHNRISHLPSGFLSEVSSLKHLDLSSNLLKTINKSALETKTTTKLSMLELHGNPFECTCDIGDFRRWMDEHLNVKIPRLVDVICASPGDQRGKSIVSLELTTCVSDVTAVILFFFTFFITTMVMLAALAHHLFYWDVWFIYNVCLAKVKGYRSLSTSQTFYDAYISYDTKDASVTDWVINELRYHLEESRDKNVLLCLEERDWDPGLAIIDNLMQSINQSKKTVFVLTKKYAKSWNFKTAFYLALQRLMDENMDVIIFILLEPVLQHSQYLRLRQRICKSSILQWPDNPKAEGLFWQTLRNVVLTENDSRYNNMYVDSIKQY
Procedure, shortened: as §1

[3] = molecular target: T3, human TLR9 (Homo sapiens, UniProt Q9NR96); test: TLR9 inhibition reporter assay (HEK-Blue cells, SEAP reporter, ODN2006 stimulation); settings: HEK-Blue cells overexpressing human TLR9, SEAP reporter, ODN2006 5 nM
T3 construct: host or cells: HEK-Blue cells
T3 sequence (Q9NR96 26-1032): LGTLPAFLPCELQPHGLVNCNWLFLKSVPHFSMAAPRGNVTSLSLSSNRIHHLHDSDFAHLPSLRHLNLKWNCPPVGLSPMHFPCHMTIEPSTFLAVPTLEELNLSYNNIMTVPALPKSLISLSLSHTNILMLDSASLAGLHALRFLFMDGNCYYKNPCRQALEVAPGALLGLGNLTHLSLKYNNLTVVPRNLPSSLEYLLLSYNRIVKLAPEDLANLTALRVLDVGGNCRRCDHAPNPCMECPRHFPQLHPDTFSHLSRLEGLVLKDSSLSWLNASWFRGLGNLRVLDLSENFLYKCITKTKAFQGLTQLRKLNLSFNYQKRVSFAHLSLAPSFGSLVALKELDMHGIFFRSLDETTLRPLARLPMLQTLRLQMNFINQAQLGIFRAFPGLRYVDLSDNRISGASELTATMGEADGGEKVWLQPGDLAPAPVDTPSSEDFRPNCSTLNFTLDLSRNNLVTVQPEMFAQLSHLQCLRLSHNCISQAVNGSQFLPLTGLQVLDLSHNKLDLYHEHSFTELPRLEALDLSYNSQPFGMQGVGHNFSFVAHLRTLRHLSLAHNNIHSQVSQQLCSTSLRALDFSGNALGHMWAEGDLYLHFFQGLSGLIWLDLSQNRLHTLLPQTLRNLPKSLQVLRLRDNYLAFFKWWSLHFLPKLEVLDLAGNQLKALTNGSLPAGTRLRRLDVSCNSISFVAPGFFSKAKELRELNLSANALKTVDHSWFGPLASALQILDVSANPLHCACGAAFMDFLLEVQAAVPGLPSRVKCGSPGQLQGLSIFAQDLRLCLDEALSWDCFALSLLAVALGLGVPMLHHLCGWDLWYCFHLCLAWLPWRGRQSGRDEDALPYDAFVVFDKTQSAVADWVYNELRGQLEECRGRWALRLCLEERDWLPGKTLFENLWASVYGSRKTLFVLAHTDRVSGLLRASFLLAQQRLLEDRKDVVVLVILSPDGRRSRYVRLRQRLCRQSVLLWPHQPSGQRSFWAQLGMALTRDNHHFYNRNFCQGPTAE
Procedure, shortened: as §1

Compound	IC50 [1] [nM]	IC50 [2] [nM]	IC50 [3] [µM]
COc1cc(-c2[nH]c3sc(C4CCC(N(C)CC(=O)N(C)C)CC4)nc3c2C(C)C)cn2ncnc12 (single isomer, unassigned) [Example 162, 2-((4-(6-isopropyl-5-(8-methoxy-[1,2,4]triazolo[1,5-a]pyridin-6-yl)-4H-pyrrolo[3,2-d]thiazol-2-yl)cyclohexyl)(methyl)amino)-N,N-dimethylacetamide]	2.6	15.7	20.3
COc1cc(-c2[nH]c3sc(C4CCC(N(C)CC(=O)N(C)C)CC4)nc3c2C(C)C)cn2ncnc12 (single isomer, unassigned) [Example 163, 2-((4-(6-isopropyl-5-(8-methoxy-[1,2,4]triazolo[1,5-a]pyridin-6-yl)-4H-pyrrolo[3,2-d]thiazol-2-yl)cyclohexyl)(methyl)amino)-N,N-dimethylacetamide]	1.59	20.6	9.4
COc1cc(-c2[nH]c3sc(C4CCC(N(C)CCS(C)(=O)=O)CC4)nc3c2C(C)C)cn2ncnc12 (single isomer, unassigned) [Example 164, 4-(6-isopropyl-5-(8-methoxy-[1,2,4]triazolo[1,5-a]pyridin-6-yl)-4H-pyrrolo[3,2-d]thiazol-2-yl)-N-methyl-N-(2-(methylsulfonyl)ethyl) cyclohexan-1-amine]	1.32	4.43	15.6
COc1cc(-c2[nH]c3sc(C4CCC(N(C)CCS(C)(=O)=O)CC4)nc3c2C(C)C)cn2ncnc12 (single isomer, unassigned) [Example 165, 4-(6-isopropyl-5-(8-methoxy-[1,2,4]triazolo[1,5-a]pyridin-6-yl)-4H-pyrrolo[3,2-d]thiazol-2-yl)-N-methyl-N-(2-(methylsulfonyl)ethyl) cyclohexan-1-amine]	1.61	14.4	22.8
COc1cc(-c2[nH]c3sc(C4CCC(NC5CCN(C(C)C)CC5)CC4)nc3c2C(C)C)cn2ncnc12 (single isomer, unassigned) [Example 166, 1-isopropyl-N-(4-(6-isopropyl-5-(8-methoxy-[1,2,4]triazolo[1,5-a]pyridin-6-yl)-4H-pyrrolo[3,2-d]thiazol-2-yl)cyclohexyl)piperidin-4-amine]	0.88	0.87	0.383
COc1cc(-c2[nH]c3sc(C4CCC(NC5CCN(C(C)C)CC5)CC4)nc3c2C(C)C)cn2ncnc12 (single isomer, unassigned) [Example 167, 1-isopropyl-N-(4-(6-isopropyl-5-(8-methoxy-[1,2,4]triazolo[1,5-a]pyridin-6-yl)-4H-pyrrolo[3,2-d]thiazol-2-yl)cyclohexyl)piperidin-4-amine]	7.37	34.8	1.71
COc1cc(-c2[nH]c3sc(C4CCC(NC56CC(C5)C6)CC4)nc3c2C(C)C)cn2ncnc12 (single isomer, unassigned) [Example 168, N-(4-(6-isopropyl-5-(8-methoxy-[1,2,4]triazolo[1,5-a]pyridin-6-yl)-4H-pyrrolo[3,2-d]thiazol-2-yl)cyclohexyl)bicyclo[1.1.1]pentan-1-amine]	6.58	33.9	> 50
COc1cc(-c2[nH]c3sc(C4CCC(NC56CC(C5)C6)CC4)nc3c2C(C)C)cn2ncnc12 (single isomer, unassigned) [Example 169, N-(4-(6-isopropyl-5-(8-methoxy-[1,2,4]triazolo[1,5-a]pyridin-6-yl)-4H-pyrrolo[3,2-d]thiazol-2-yl)cyclohexyl)bicyclo[1.1.1]pentan-1-amine]	4.17	17	9.81
CNCCNC1CCC(c2nc3c(C(C)C)c(-c4cc(OC)c5ncnn5c4)[nH]c3s2)CC1 (single isomer, unassigned) [Example 170, N1-(4-(6-isopropyl-5-(8-methoxy-[1,2,4]triazolo[1,5-a]pyridin-6-yl)-4H-pyrrolo[3,2-d]thiazol-2-yl)cyclohexyl)-N2-methylethane-1,2-diamine]	2.38	4.65	1.76
CNCCNC1CCC(c2nc3c(C(C)C)c(-c4cc(OC)c5ncnn5c4)[nH]c3s2)CC1 (single isomer, unassigned) [Example 171, N1-(4-(6-isopropyl-5-(8-methoxy-[1,2,4]triazolo[1,5-a]pyridin-6-yl)-4H-pyrrolo[3,2-d]thiazol-2-yl)cyclohexyl)-N2-methylethane-1,2-diamine]	0.78	2.21	0.879
CC(C)c1c(-c2cn(C)c3ncccc23)[nH]c2sc(C3CCC(NCC4(C)COC4)CC3)nc12 (single isomer, unassigned) [Example 172, 4-(6-isopropyl-5-(1-methyl-1H-pyrrolo[2,3-b]pyridin-3-yl)-4H-pyrrolo[3,2-d]thiazol-2-yl)-N-((3-methyloxetan-3-yl)methyl)cyclohexan-1-amine]	2.84	1.22	14.8
